This is an account of results in ChEMBL document CHEMBL5154721, “Discovery of HDAC6-Selective Inhibitor NN-390 with in Vitro Efficacy in Group 3 Medulloblastoma” (J Med Chem, 2022).

Activity calls are given as the source filed them. No cut-off for these calls is given here. A value given as a limit tells only on which side of the number the result lay.

One series addresses Histone deacetylase 1 (Homo sapiens, UniProt Q13547). The experiment in a line: Inhibition of full length human recombinant HDAC1 expressed in Sf9 baculovirus system using FAM-labeled acetylated peptide as substrate by measuring fluorescence intensity by EMSA method. On the technique in general: Mobility shift assays separate free from complexed probe on a gel.
The target in the next series is T1, Histone deacetylase 7 (Homo sapiens, UniProt Q8WUI4).
T1 sequence (Q8WUI4 whole entry): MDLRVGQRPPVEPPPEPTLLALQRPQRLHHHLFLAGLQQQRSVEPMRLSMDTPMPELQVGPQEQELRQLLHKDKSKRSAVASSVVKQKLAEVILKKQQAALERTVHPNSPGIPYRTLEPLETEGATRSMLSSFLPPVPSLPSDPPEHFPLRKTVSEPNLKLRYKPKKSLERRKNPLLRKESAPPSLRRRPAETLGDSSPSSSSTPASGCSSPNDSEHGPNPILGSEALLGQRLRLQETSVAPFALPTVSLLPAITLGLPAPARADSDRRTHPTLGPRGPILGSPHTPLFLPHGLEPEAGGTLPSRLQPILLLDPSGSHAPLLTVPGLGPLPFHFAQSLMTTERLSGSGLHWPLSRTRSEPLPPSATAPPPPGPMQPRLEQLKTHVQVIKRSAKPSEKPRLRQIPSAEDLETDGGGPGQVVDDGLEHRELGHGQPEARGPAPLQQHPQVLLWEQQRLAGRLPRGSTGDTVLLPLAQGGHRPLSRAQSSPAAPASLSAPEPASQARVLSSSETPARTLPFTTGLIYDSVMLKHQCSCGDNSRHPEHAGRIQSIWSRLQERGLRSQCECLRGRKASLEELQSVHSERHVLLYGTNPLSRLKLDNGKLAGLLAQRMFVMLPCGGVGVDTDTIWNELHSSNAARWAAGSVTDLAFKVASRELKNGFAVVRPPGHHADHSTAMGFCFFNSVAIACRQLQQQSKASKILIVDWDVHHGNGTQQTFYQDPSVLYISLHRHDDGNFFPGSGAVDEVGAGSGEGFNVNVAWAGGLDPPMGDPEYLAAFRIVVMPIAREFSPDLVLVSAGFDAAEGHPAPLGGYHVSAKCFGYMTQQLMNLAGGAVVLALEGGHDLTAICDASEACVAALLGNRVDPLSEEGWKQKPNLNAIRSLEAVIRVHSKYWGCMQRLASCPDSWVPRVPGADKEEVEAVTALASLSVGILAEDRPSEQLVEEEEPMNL
The experiment in a line: Inhibition of full length human recombinant HDAC7 expressed in Sf9 baculovirus system using FAM-labeled acetylated peptide as substrate by measuring fluorescence intensity by EMSA method.

A further series concerns the target Histone deacetylase 9 (Homo sapiens, UniProt Q9UKV0). The experiment in a line: Inhibition of full length human recombinant HDAC9 expressed in Sf9 baculovirus system using FAM-labeled acetylated peptide as substrate by measuring fluorescence intensity by EMSA method.
The nature of series [1]: Competitive inhibition of N-terminal His-SUMO tagged zebra fish recombinant HDAC6 catalytic domain 2 transfected with pET28b(+) vector in Escherichia coli BL21 (DE3) RILP cells incubated for 10 mins followed by addition of FITC-M344 measured af ter 10 mins by fluorescence polarization assay. Details: species or system Danio rerio. In general terms: Polarisation of emitted light reports the rotation of a fluorescent probe.

Series [2] in a line: Cytotoxicity against human primary pooled fibroblasts cells assessed as inhibition of cell growth incubated for 72 hrs measured by spectrophotometer analysis. It is filed as toxicity, cell-based, Fibroblast.
Series [3] deals with T2, Protein deacetylase HDAC6 (Homo sapiens) (UniProt Q9UBN7).
T2 sequence (whole entry): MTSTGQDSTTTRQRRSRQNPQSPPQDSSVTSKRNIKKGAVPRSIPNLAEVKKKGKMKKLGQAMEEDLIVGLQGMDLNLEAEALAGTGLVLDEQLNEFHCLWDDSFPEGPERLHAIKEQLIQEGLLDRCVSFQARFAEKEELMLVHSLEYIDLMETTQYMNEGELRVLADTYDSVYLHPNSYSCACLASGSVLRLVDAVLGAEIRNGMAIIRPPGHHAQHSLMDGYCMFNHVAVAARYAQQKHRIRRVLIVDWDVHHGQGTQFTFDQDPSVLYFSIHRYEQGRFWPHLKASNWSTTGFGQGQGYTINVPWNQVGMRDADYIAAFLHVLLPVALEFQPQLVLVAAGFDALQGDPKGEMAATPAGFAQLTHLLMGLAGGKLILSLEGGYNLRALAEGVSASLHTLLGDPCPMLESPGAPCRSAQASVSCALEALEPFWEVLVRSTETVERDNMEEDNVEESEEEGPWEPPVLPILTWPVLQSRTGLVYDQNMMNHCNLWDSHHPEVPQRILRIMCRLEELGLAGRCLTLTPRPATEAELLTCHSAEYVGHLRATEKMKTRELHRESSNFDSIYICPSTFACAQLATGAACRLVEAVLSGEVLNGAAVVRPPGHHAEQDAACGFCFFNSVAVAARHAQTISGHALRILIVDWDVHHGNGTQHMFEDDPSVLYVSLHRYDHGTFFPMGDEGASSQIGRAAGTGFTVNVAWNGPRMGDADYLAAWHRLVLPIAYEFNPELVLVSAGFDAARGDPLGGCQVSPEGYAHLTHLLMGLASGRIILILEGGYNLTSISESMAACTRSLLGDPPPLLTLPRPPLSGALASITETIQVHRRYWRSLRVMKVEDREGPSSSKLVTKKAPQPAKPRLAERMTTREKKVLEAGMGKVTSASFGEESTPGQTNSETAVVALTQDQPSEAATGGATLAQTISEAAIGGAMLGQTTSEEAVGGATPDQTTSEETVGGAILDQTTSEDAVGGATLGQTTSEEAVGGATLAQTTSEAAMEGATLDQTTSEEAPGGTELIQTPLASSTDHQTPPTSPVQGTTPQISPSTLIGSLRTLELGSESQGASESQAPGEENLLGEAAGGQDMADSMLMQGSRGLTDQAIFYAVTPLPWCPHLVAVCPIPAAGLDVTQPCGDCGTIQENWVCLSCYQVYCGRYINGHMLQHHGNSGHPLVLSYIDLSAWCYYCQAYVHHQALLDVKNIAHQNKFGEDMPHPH
The experiment in a line: Inhibition of full length human recombinant HDAC6 in human MV4-11 cells assessed as increase in acetylation of […] for 6 hrs by immunofluorescence imaging method. The following applies: dose 0.1-2 µM, DDE = dose-dependent effect. It is filed as cell-based.

The test system of series [4] is MV4-11. The experiment in a line: Induction of apoptosis in human MV4-11 cells assessed as viable cells at 1 uM after 24 hrs by Annexin V/PI staining based flow cytometric analysis (Rvb=58.28%). Type of series: functional. The following applies: read-out: Activity. In general terms: A flow cytometer gives signals particle by particle.
In series [5] the test system is MV4-11. The experiment in a line: Induction of apoptosis in human MV4-11 cells assessed as late apoptotic cells at 1 uM after 24 hrs by Annexin V/PI staining based flow cytometric analysis (Rvb=2%). It is filed as functional.
Series [6] concerns MV4-11. The experiment in a line: Induction of apoptosis in human MV4-11 cells assessed as viable cells at 2 uM after 24 hrs by Annexin V/PI staining based flow cytometric analysis (Rvb=58.28%). The following applies: read-out: Activity. It is filed as functional.
Series [7] deals with MV4-11. The experiment in a line: Induction of apoptosis in human MV4-11 cells assessed as early apoptotic cells at 2 uM after 24 hrs by Annexin V/PI staining based flow cytometric analysis (Rvb=2%). Type of series: functional.
Series [8] concerns MV4-11. The experiment in a line: Induction of apoptosis in human MV4-11 cells assessed as late apoptotic cells at 2 uM after 24 hrs by Annexin V/PI staining based flow cytometric analysis (Rvb=2%). Type of series: functional.
For the next series, the system named is MB002. The experiment in a line: Cytotoxicity against refractory human group 3 SU_MB002 cells. It is filed as functional, cell-based.

Chain of Histone deacetylase 9 (Q9UKV0 whole entry, the tested form may be a part): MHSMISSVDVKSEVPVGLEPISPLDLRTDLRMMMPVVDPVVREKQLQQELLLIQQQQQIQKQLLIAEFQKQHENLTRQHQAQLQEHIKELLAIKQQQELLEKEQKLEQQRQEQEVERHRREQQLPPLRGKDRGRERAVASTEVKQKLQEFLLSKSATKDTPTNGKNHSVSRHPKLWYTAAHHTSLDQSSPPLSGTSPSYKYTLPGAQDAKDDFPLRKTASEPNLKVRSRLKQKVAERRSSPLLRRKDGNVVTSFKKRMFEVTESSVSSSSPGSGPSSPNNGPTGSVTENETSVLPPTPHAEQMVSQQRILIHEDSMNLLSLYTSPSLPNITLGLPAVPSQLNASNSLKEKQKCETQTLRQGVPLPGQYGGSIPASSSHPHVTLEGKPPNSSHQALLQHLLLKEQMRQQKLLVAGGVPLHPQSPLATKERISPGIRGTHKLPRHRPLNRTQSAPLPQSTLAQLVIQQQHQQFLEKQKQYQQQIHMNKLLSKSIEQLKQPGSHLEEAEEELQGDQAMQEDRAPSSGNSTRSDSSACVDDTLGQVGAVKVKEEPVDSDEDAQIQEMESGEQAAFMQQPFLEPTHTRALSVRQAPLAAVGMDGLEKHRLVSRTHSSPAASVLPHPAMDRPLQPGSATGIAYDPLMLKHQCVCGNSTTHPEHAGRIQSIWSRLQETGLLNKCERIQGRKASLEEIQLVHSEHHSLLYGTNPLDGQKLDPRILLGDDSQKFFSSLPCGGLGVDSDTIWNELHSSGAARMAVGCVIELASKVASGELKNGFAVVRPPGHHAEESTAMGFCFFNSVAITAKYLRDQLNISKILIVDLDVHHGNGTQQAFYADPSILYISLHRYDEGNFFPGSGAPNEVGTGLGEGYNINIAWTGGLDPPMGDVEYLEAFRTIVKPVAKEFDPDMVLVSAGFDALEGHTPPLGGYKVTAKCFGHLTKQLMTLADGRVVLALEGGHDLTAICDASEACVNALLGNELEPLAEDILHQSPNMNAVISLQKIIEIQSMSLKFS
Chain of Histone deacetylase 1 (Q13547 whole entry): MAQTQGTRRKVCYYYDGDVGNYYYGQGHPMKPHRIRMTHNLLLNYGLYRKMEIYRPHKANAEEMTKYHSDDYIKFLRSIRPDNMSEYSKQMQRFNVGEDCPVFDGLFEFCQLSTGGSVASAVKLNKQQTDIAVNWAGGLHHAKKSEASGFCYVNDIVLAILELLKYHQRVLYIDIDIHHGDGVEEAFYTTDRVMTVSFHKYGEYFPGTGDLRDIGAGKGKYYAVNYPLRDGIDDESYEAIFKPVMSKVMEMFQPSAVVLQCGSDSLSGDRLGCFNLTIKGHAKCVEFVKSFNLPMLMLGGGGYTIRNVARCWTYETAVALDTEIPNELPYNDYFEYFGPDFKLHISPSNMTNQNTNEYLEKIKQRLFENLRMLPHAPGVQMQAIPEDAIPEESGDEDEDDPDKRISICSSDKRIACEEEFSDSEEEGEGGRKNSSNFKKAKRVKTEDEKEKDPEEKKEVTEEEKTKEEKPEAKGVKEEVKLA

As for `CC(C)N(Cc1ccc(C(=O)NO)cc1)S(=O)(=O)c1cc(F)c(F)c(F)c1F`, the IC50 on Histone deacetylase 1 is above 5 µM; at Histone deacetylase 7, above 5 µM; at Histone deacetylase 9, above 5 µM; in series [1], 0.139 µM. Further, in [2], the IC50 at 72 h is 8.8 µM. The inhibition result in series [3] was “Dde”. In the series with MV4-11 [4], the viability at 1 µM is 56.3%. Besides, the Activity came out at 10.88% in the series on MV4-11 [5], 3.59% with MV4-11 [7] and 23.4% in the series with MV4-11 [8]. Also, the viability at 2 µM in the series with MV4-11 [6] stood at 32.9%. For the same molecule, in the series with MB002, the outcome was Active.

What is called IC50 is the concentration that inhibits the measured activity by half.
